# Measured values as given in patent US20250042889A1, “3CLPRO PROTEASE INHIBITOR” (SHANGHAI QILU PHARMACEUTICAL RESEARCH AND DEVELOPMENT …, priority 2021, published 2025).
# Read-outs that look alike come from different tables or passages of the source.
# Target: SARS-COV-2 3CLpro/Mpro protease (Severe acute respiratory syndrome coronavirus 2 (2019-nCoV) (SARS-CoV-2), UniProt P0DTD1)
# Assay: Inhibitory effect on SARS-COV-2 3CLpro/Mpro protease by fluorescence resonance energy transfer
# Format: biochemical
# Conditions: activity intervals A-D
# [1] = read-out: IC50 (nM), Inhibition on SARS-CoV-2 3CLpro/Mpro protease
# [2] = IC50 (nM), Inhibition on SARS-CoV-2 3CLpro/Mpro protease
Compound,IC50 [1] [nM],IC50 [2] [nM]
C[C@@H]1CN(C(=O)c2cc(Br)cc([N+](=O)[O-])c2N[C@@H]2CCCN(C(=O)[C@H]3CC(=O)N[C@@H](C)C3)C2)C[C@H](C)O1 [Example 254],10 to 50,–
CNc1cncc(C(=O)N2CCC[C@@H](Nc3c(C(=O)N4CCC(F)(F)C4)cc(Br)cc3[N+](=O)[O-])C2)c1 [Example 255],10 to 50,–
CNc1cncc(C(=O)N2CCC[C@@H](Nc3c(C(=O)N4CCC[C@H](C)C4)cc(Br)cc3[N+](=O)[O-])C2)c1 [Example 256],10 to 50,–
CNc1cncc(C(=O)N2CCC[C@@H](Nc3c(C(=O)N4C[C@@H](C)C[C@H](C)C4)cc(Br)cc3[N+](=O)[O-])C2)c1 [Example 257],10 to 50,–
CNc1cncc(C(=O)N2CCC[C@@H](Nc3c(C(=O)N4CC(C)CC(O)C4)cc(Br)cc3[N+](=O)[O-])C2)c1 (stereo partly shown) [Example 258],10 to 50,–
CNc1cncc(C(=O)N[C@H]2CCOC[C@H]2Nc2c(C(=O)N3C[C@@H](C)O[C@H](C)C3)cc(Br)cc2[N+](=O)[O-])c1 [Example 259],10 to 50,–
CCNc1cncc(C(=O)N2CCC[C@@H](Nc3c(C(=O)N4CCCCC4)cc(Br)cc3[N+](=O)[O-])C2)c1 [Example 260],10 to 50,–
CSc1cncc(C(=O)N2CCC[C@@H](Nc3c(C(=O)N4CCCCC4)cc(Br)cc3[N+](=O)[O-])C2)c1 [Example 261],10 to 50,–
C[C@H]1C[C@H](C)CN(C(=O)c2cc(Br)cc([N+](=O)[O-])c2N[C@@H]2CCCN(C(=O)[C@H]3CC(=O)N[C@@H](C)C3)C2)C1 [Example 262],10 to 50,–
CNc1cncc(C(=O)N2CCC[C@@H](Nc3c(C(=O)N4CC(N)CC(F)(F)C4)cc(Br)cc3[N+](=O)[O-])C2)c1 (stereo partly shown) [Example 263],10 to 50,–
O=C1C[C@H](C(=O)N2CCC[C@@H](Nc3c(C(=O)N4CCCCC4)cc(Br)cc3[N+](=O)[O-])C2)c2ccccc2N1 [Example 264],10 to 50,–
O=C1C[C@@H](C(=O)N2CCC[C@@H](Nc3c(C(=O)N4CCCCC4)cc(Br)cc3[N+](=O)[O-])C2)c2ccccc2N1 [Example 265],10 to 50,–
CNc1cncc(C(=O)N2CCC[C@@H](Nc3c(C(=O)N4CC5CC(C4)O5)cc(Br)cc3[N+](=O)[O-])C2)c1 [Example 266],–,10 to 50
CNc1cncc(C(=O)N2CCC[C@@H](Nc3c(C(=O)N4CCc5ccsc5C4)cc(Br)cc3[N+](=O)[O-])C2)c1 [Example 267],10 to 50,–
CNc1cncc(C(=O)N2CCC[C@@H](Nc3c(C(=O)N4CCC5(CCCO5)CC4)cc(Br)cc3[N+](=O)[O-])C2)c1 [Example 268],< 10,–
CNc1cncc(C(=O)N2CCC[C@@H](Nc3c(C(=O)N4CC5CCC(C4)O5)cc(Br)cc3[N+](=O)[O-])C2)c1 [Example 269],10 to 50,–
CNc1cncc(C(=O)N2CCC[C@@H](Nc3c(C(=O)N4CCC5(CCCCO5)CC4)cc(Br)cc3[N+](=O)[O-])C2)c1 [Example 270],10 to 50,–
CNc1cncc(C(=O)N2CCC[C@@H](Nc3c(C(=O)N4Cc5cccnc5C4)cc(Br)cc3[N+](=O)[O-])C2)c1 [Example 271],10 to 50,–
CNc1cncc(C(=O)N2CCC[C@@H](Nc3c(C(=O)N4CCC5(CCNCC5)CC4)cc(Br)cc3[N+](=O)[O-])C2)c1 [Example 272],10 to 50,–
CNc1cncc(C(=O)N2CCC[C@@H](Nc3c(C(=O)N4CC(F)(F)C(F)(F)C4)cc(Br)cc3[N+](=O)[O-])C2)c1 [Example 273],10 to 50,–
C[C@@H]1CN(C(=O)c2cc(Br)cc([N+](=O)[O-])c2N[C@@H]2CCCN(C(=O)[C@H]3CC(=O)Nc4ccccc43)C2)C[C@H](C)O1 [Example 274],< 10,–
CNc1cncc(C(=O)N2CCC[C@@H](Nc3c(C(=O)N4CCC(C)(OC)CC4)cc(Br)cc3[N+](=O)[O-])C2)c1 [Example 275],10 to 50,–

Compound,IC50 [1] [nM],IC50 [2] [nM]
CNc1cncc(C(=O)N2CCC[C@@H](Nc3c(C(=O)N4CC5CCC(C4)N5)cc(Br)cc3[N+](=O)[O-])C2)c1 [Example 276],–,10 to 50
CNc1cncc(C(=O)N2CCC[C@@H](Nc3c(C(=O)N4CCc5sccc5C4)cc(Br)cc3[N+](=O)[O-])C2)c1 [Example 277],10 to 50,–
CNc1cncc(C(=O)N2CCC[C@@H](Nc3c(C(=O)N4Cc5c[nH]nc5C4)cc(Br)cc3[N+](=O)[O-])C2)c1 [Example 278],10 to 50,–
CNc1cncc(C(=O)N2CCC[C@@H](Nc3c(C(=O)N4CCC(F)(F)CC4)cc(Br)cc3[N+](=O)[O-])C2)c1 [Example 279],10 to 50,–
CNc1cncc(C(=O)N2CCC[C@@H](Nc3c(C(=O)N4CCC5(CCCN5)CC4)cc(Br)cc3[N+](=O)[O-])C2)c1 [Example 280],10 to 50,–
CNc1cncc(C(=O)N2CCC[C@@H](Nc3c(C(=O)N4CCC(OC)(C(F)(F)F)CC4)cc(Br)cc3[N+](=O)[O-])C2)c1 [Example 281],50 to 100,–
C[C@@H]1CN(C(=O)c2cc(Br)cc([N+](=O)[O-])c2N[C@@H]2CCCN(C(=O)[C@H]3CC(=O)Nc4ccccc43)C2)CCO1 [Example 282],10 to 50,–
C[C@H]1CN(C(=O)c2cc(Br)cc([N+](=O)[O-])c2N[C@@H]2CCCN(C(=O)[C@H]3CC(=O)Nc4ccccc43)C2)CCO1 [Example 283],10 to 50,–
CNc1cncc(C(=O)N2CCC[C@@H](Nc3c(C(=O)N4Cc5cnn(C)c5C4)cc(Br)cc3[N+](=O)[O-])C2)c1 [Example 284],10 to 50,–
CNc1cncc(C(=O)N2CCC[C@@H](Nc3c(C(=O)N4CCC5(CCO5)CC4)cc(Br)cc3[N+](=O)[O-])C2)c1 [Example 285],10 to 50,–
CNc1cncc(C(=O)N2CCC[C@@H](Nc3c(C(=O)N4CCO[C@H](C(F)(F)F)C4)cc(Br)cc3[N+](=O)[O-])C2)c1 [Example 286],10 to 50,–
COCCN1CCN(C(=O)c2cc(Br)cc([N+](=O)[O-])c2N[C@H]2CN(C(=O)c3cncc(Br)c3)CC2(C)O)CC1 (stereo partly shown) [Example 287],10 to 50,–
CNc1cncc(C(=O)N2CCC[C@@H](Nc3c(C(=O)N4CCO[C@@H](C(F)(F)F)C4)cc(Br)cc3[N+](=O)[O-])C2)c1 [Example 288],10 to 50,–
CNc1cncc(C(=O)N2CCC[C@@H](Nc3c(C(=O)N4CCC(N5C[C@@H](C)O[C@@H](C)C5)CC4)cc(Br)cc3[N+](=O)[O-])C2)c1 [Example 289],10 to 50,–
CNc1cncc(C(=O)N2CCC[C@@H](Nc3c(C(=O)N4C[C@H]5C[C@@H]4CO5)cc(Br)cc3[N+](=O)[O-])C2)c1 [Example 290],10 to 50,–
CNc1cncc(C(=O)N2CCC[C@@H](Nc3c(C(=O)N4C[C@@H]5C[C@H]4CO5)cc(Br)cc3[N+](=O)[O-])C2)c1 [Example 291],10 to 50,–
CNc1cncc(C(=O)N2CCC[C@@H](Nc3c(C(=O)N4C5CCCC4CCC5)cc(Br)cc3[N+](=O)[O-])C2)c1 [Example 292],–,10 to 50
CNc1cncc(C(=O)N2CCC[C@@H](Nc3c(C(=O)N4CCC5(CC4)CCC(C)(C)O5)cc(Br)cc3[N+](=O)[O-])C2)c1 [Example 293],10 to 50,–
CNc1cncc(C(=O)N2CCC[C@@H](Nc3c(C(=O)N4CCOC5CC54)cc(Br)cc3[N+](=O)[O-])C2)c1 (stereo partly shown) [Example 294],10 to 50,–
O=C(c1cc(Br)cc([N+](=O)[O-])c1N[C@@H]1CCCN(C(=O)C2CNCC(F)(F)C2)C1)N1CCCCC1 (stereo partly shown) [Example 296],10 to 50,–
Cc1cc(C(=O)N2C[C@H](Nc3c(C(=O)NCc4ccc(Cl)cc4)cc(Br)cc3[N+](=O)[O-])C3(CC3)C2)cc(=O)[nH]1 [Example 297],10 to 50,–
